Reference: article PMC5218480 (PLoS ONE, 2017)

Tested on: MV-4-11 cells
Assay: Gene expression microarray analysis (Affymetrix PrimeView) and GSEA
Type: cell-based, human
Set-up: RFU PODN (11730768_x_at) / Fold change /veh PODN (11730768_x_at) / RFU LINC00158 (11744669_a_at) / Fold change /veh LINC00158 (11744669_a_at) / RFU DUSP10 (11751237_a_at) / Fold change /veh DUSP10 (11751237_a_at) / RFU ID3 (11757404_x_at) / Fold change /veh ID3 (11757404_x_at) / RFU PLEKHG5 (11737974_s_at) / Fold change /veh PLEKHG5 (11737974_s_at) / RFU LRRC4B (11730491_at) / Fold change /veh LRRC4B (11730491_at) / RFU GIMAP4 (11747438_a_at) / Fold change /veh GIMAP4 (11747438_a_at) / RFU KRT8 (11758183_x_at) / Fold change /veh KRT8 (11758183_x_at) / RFU CNN1 (11734310_a_at) / Fold change /veh CNN1 (11734310_a_at) / RFU VPS37D (11726825_at) / Fold change /veh VPS37D (11726825_at) / RFU C10orf10 (11716522_x_at) / Fold change /veh C10orf10 (11716522_x_at) / RFU KIR2DL2 /// KIR2DL4 /// KIR2DL5A /// KIR2DL5B /// KIR2DS1 /// KIR2DS2 /// KIR2DS3 /// KIR2DS4 /// KIR3DL3 /// KIR3DL3 /// KIR3DS1 (11738374_at) / Fold change /veh KIR2DL2 /// KIR2DL4 /// KIR2DL5A /// KIR2DL5B /// KIR2DS1 /// KIR2DS2 /// KIR2DS3 /// KIR2DS4 /// KIR3DL3 /// KIR3DL3 /// KIR3DS1 (11738374_at) / RFU C1QL1 (11718748_at) / Fold change /veh C1QL1 (11718748_at) / RFU TMPRSS4 (11747572_a_at) / Fold change /veh TMPRSS4 (11747572_a_at) / RFU HAMP (11756126_x_at) / Fold change /veh HAMP (11756126_x_at) / RFU RNFT2 (11725882_a_at) / Fold change /veh RNFT2 (11725882_a_at) / RFU NR4A2 (11747474_a_at) / Fold change /veh NR4A2 (11747474_a_at) / RFU ABCC12 (11746883_a_at) / Fold change /veh ABCC12 (11746883_a_at) / RFU TMEM136 (11760407_x_at) / Fold change /veh TMEM136 (11760407_x_at) / RFU CLDN22 /// WWC2 (11732394_at) / Fold change /veh CLDN22 /// WWC2 (11732394_at) / RFU HLA-DPB1 (11760878_x_at) / Fold change /veh HLA-DPB1 (11760878_x_at) / RFU SPINT1 (11716480_a_at) / Fold change /veh SPINT1 (11716480_a_at) / RFU GAP43 (11754022_s_at) / Fold change /veh GAP43 (11754022_s_at) / RFU A4GNT (11735810_at) / Fold change /veh A4GNT (11735810_at) / RFU PRB3 (11715151_x_at) / Fold change /veh PRB3 (11715151_x_at) / RFU TUBB4B (11761932_at) / Fold change /veh TUBB4B (11761932_at) / RFU CAPN14 (11732068_a_at) / Fold change /veh CAPN14 (11732068_a_at) / RFU TMCC2 (11721928_a_at) / Fold change /veh TMCC2 (11721928_a_at) / RFU IRGQ (11745062_a_at) / Fold change /veh IRGQ (11745062_a_at) / RFU FAM174B (11720279_a_at) / Fold change /veh FAM174B (11720279_a_at) / RFU TMPRSS4 (11748680_a_at) / Fold change /veh TMPRSS4 (11748680_a_at) / RFU FAM212B (11763350_a_at) / Fold change /veh FAM212B (11763350_a_at) / RFU PLEKHG5 (11743358_a_at) / Fold change /veh PLEKHG5 (11743358_a_at) / RFU ZSCAN30 (11745921_a_at) / Fold change /veh ZSCAN30 (11745921_a_at) / RFU CMKLR1 (11741424_a_at) / Fold change /veh CMKLR1 (11741424_a_at) / RFU LOC101060620 /// MAPK8IP1 (11723275_at) / Fold change /veh LOC101060620 /// MAPK8IP1 (11723275_at) / RFU SPTSSB (11747773_x_at) / Fold change /veh SPTSSB (11747773_x_at) / RFU PRSS12 (11739890_at) / Fold change /veh PRSS12 (11739890_at) / RFU BIN1 (11741810_x_at) / Fold change /veh BIN1 (11741810_x_at) / RFU WNT11 (11732464_a_at) / Fold change /veh WNT11 (11732464_a_at) / RFU C10orf10 (11716521_a_at) / Fold change /veh C10orf10 (11716521_a_at) / RFU C5orf56 (11738089_at) / Fold change /veh C5orf56 (11738089_at) / RFU CYB561 (11721691_x_at) / Fold change /veh CYB561 (11721691_x_at) / RFU ANKRD19P (11752326_a_at) / Fold change /veh ANKRD19P (11752326_a_at) / RFU OR2T12 /// OR2T33 /// OR2T8 (11738714_s_at) / Fold change /veh OR2T12 /// OR2T33 /// OR2T8 (11738714_s_at) / RFU VCAN (11748164_a_at) / Fold change /veh VCAN (11748164_a_at) / RFU JSRP1 (11732532_at) / Fold change /veh JSRP1 (11732532_at) / RFU KRTAP10-11 (11738290_x_at) / Fold change /veh KRTAP10-11 (11738290_x_at) / RFU MYO3A (11730013_a_at) / Fold change /veh MYO3A (11730013_a_at) / RFU EBF3 (11725865_a_at) / Fold change /veh EBF3 (11725865_a_at) / RFU CAMK2N1 (11719241_x_at) / Fold change /veh CAMK2N1 (11719241_x_at) / RFU C5orf56 (11738088_a_at) / Fold change /veh C5orf56 (11738088_a_at) / RFU OLFML3 (11715873_a_at) / Fold change /veh OLFML3 (11715873_a_at) / RFU LOC100653217 /// NTM (11731650_a_at) / Fold change /veh LOC100653217 /// NTM (11731650_a_at) / RFU MAPK11 (11762145_a_at) / Fold change /veh MAPK11 (11762145_a_at) / RFU FIZ1 (11724087_x_at) / Fold change /veh FIZ1 (11724087_x_at) / RFU OASL (11726364_x_at) / Fold change /veh OASL (11726364_x_at) / RFU SOX15 (11748057_x_at) / Fold change /veh SOX15 (11748057_x_at) / RFU CD79A (11719716_a_at) / Fold change /veh CD79A (11719716_a_at) / RFU HIST1H1D (11736915_at) / Fold change /veh HIST1H1D (11736915_at) / RFU CASKIN2 (11723855_a_at) / Fold change /veh CASKIN2 (11723855_a_at) / RFU LOC730098 (11760151_x_at) / Fold change /veh LOC730098 (11760151_x_at) / RFU OR4N2 (11742367_at) / Fold change /veh OR4N2 (11742367_at) / RFU PRRT2 (11749266_a_at) / Fold change /veh PRRT2 (11749266_a_at) / RFU SNX32 (11753110_a_at) / Fold change /veh SNX32 (11753110_a_at) / RFU CDHR5 (11726645_a_at) / Fold change /veh CDHR5 (11726645_a_at) / RFU RCAN1 (11760418_a_at) / Fold change /veh RCAN1 (11760418_a_at) / RFU FAM167A (11723789_a_at) / Fold change /veh FAM167A (11723789_a_at) / RFU FAM26E (11764081_at) / Fold change /veh FAM26E (11764081_at) / RFU ISYNA1 (11749810_s_at) / Fold change /veh ISYNA1 (11749810_s_at) / RFU ACY1 (11761880_at) / Fold change /veh ACY1 (11761880_at) / RFU 11764098_at / Fold change /veh 11764098_at / RFU SAMD14 (11745864_x_at) / Fold change /veh SAMD14 (11745864_x_at) / RFU NPB (11741838_a_at) / Fold change /veh NPB (11741838_a_at) / RFU TMPRSS6 (11731388_a_at) / Fold change /veh TMPRSS6 (11731388_a_at) / RFU KRTAP10-2 (11738614_at) / Fold change /veh KRTAP10-2 (11738614_at) / RFU ARHGAP8 /// PRR5-ARHGAP8 (11727945_x_at) / Fold change /veh ARHGAP8 /// PRR5-ARHGAP8 (11727945_x_at) / RFU KRTAP5-7 /// NADSYN1 (11734609_at) / Fold change /veh KRTAP5-7 /// NADSYN1 (11734609_at) / RFU RASL12 (11751679_a_at) / Fold change /veh RASL12 (11751679_a_at) / RFU CDKN2B (11736163_a_at) / Fold change /veh CDKN2B (11736163_a_at) / RFU PRF1 (11729649_at) / Fold change /veh PRF1 (11729649_at) / RFU, ZNF638 /// ZNF638-IT1 / Fold change vs veh, ZNF638 /// ZNF638-IT1 / RFU, PANK3 / Fold change vs veh, PANK3 / RFU, SH3YL1 / Fold change vs veh, SH3YL1 / RFU, ZEB2 / Fold change vs veh, ZEB2 / RFU, NRIP1 / Fold change vs veh, NRIP1 / RFU, PTTG1IP / Fold change vs veh, PTTG1IP / RFU, CAPN2 / Fold change vs veh, CAPN2 / RFU, MED14 / Fold change vs veh, MED14 / RFU, SNORA58 / Fold change vs veh, SNORA58 / RFU, C1orf63 / Fold change vs veh, C1orf63 / RFU, LRRFIP1 / Fold change vs veh, LRRFIP1 / RFU, NDUFAF7 / Fold change vs veh, NDUFAF7 / RFU, SLC12A2 / Fold change vs veh, SLC12A2 / RFU, IBTK / Fold change vs veh, IBTK / RFU, ESF1 / Fold change vs veh, ESF1 / Fold change vs veh, TMEM50B / RFU, TAOK1 / Fold change vs veh, TAOK1 / RFU, ACBD3 / Fold change vs veh, ACBD3 / RFU, TMA16 / Fold change vs veh, TMA16 / RFU, RWDD3 / Fold change vs veh, RWDD3 / RFU, BCAT1 / Fold change vs veh, BCAT1 / RFU, EDEM3 / Fold change vs veh, EDEM3 / RFU, TMEM33 / Fold change vs veh, TMEM33 / RFU, WDR75 / Fold change vs veh, WDR75 / RFU, AHCTF1 / Fold change vs veh, AHCTF1 / RFU, TFRC / Fold change vs veh, TFRC / RFU, ZDHHC17 / Fold change vs veh, ZDHHC17 / RFU, NOM1 / Fold change vs veh, NOM1 / RFU, ARL8B / Fold change vs veh, ARL8B / RFU, ZBTB11 / Fold change vs veh, ZBTB11 / RFU, TAMM41 / Fold change vs veh, TAMM41 / RFU, KIAA1704 /// LOC100996395 / Fold change vs veh, KIAA1704 /// LOC100996395 / RFU, ING1 / Fold change vs veh, ING1 / RFU, TRMT61B / Fold change vs veh, TRMT61B / RFU, FUBP3 / Fold change vs veh, FUBP3 / RFU, TP53 / Fold change vs veh, TP53 / RFU, TNKS2 / Fold change vs veh, TNKS2 / RFU, ZFP14 / Fold change vs veh, ZFP14 / RFU, ACTR2 / Fold change vs veh, ACTR2 / RFU, PPP3R1 / Fold change vs veh, PPP3R1 / RFU, PIK3R1 / Fold change vs veh, PIK3R1 / RFU, HNRNPA1 / Fold change vs veh, HNRNPA1 / RFU, RNF170 / Fold change vs veh, RNF170 / RFU, ZNF28 / Fold change vs veh, ZNF28 / RFU, RNGTT / Fold change vs veh, RNGTT / RFU, OGT / Fold change vs veh, OGT / RFU, BRD1 / Fold change vs veh, BRD1 / RFU, MARS / Fold change vs veh, MARS / RFU, ZNF655 / Fold change vs veh, ZNF655 / RFU, FAHD1 / Fold change vs veh, FAHD1 / RFU, BDP1 / Fold change vs veh, BDP1 / RFU, LRRCC1 / Fold change vs veh, LRRCC1 / RFU, ARID1A / Fold change vs veh, ARID1A / RFU, ZNF146 / Fold change vs veh, ZNF146 / RFU, ZNF330 / Fold change vs veh, ZNF330 / RFU, GPN3 / Fold change vs veh, GPN3 / RFU, C9orf123 / Fold change vs veh, C9orf123 / RFU, N4BP2L2 / Fold change vs veh, N4BP2L2 / RFU, ARFIP1 / Fold change vs veh, ARFIP1 / RFU, FAM179B / Fold change vs veh, FAM179B / RFU, BCL10 / Fold change vs veh, BCL10 / RFU, UHRF1BP1L / Fold change vs veh, UHRF1BP1L / RFU, BET1 / Fold change vs veh, BET1 / RFU, CNOT2 / Fold change vs veh, CNOT2 / RFU, ZNF268 / Fold change vs veh, ZNF268 / Fold change vs veh, ZNF507 / RFU, DGCR2 / Fold change vs veh, DGCR2 / RFU, WDSUB1 / Fold change vs veh, WDSUB1 / Fold change vs veh, HSP90B1 /// MIR3652 / RFU, ADSS / Fold change vs veh, ADSS / RFU, GK / Fold change vs veh, GK / RFU, ZNF148 / Fold change vs veh, ZNF148 / RFU, TAF9 / Fold change vs veh, TAF9 / RFU, SLC1A5 / Fold change vs veh, SLC1A5 / RFU, SLMO2 / Fold change vs veh, SLMO2 / RFU, ABCC4 / Fold change vs veh, ABCC4 / RFU, LOC101060439 /// RAP1B / Fold change vs veh, LOC101060439 /// RAP1B / RFU, RFX7 / Fold change vs veh, RFX7 / RFU, GTPBP10 / Fold change vs veh, GTPBP10 / RFU, CNEP1R1 / Fold change vs veh, CNEP1R1 / RFU, BIVM-ERCC5 /// ERCC5 / Fold change vs veh, BIVM-ERCC5 /// ERCC5 / RFU, ILF3 / Fold change vs veh, ILF3 / RFU 11762660_at / Fold change /veh 11762660_at / RFU VCAN (11757783_s_at) / Fold change /veh VCAN (11757783_s_at) / RFU DDX43 (11728927_at) / Fold change /veh DDX43 (11728927_at) / RFU KRT8 (11758188_x_at) / Fold change /veh KRT8 (11758188_x_at) / RFU NKD1 (11759106_at) / Fold change /veh NKD1 (11759106_at) / RFU SRD5A1 (11742802_a_at) / Fold change /veh SRD5A1 (11742802_a_at) / RFU TPSAB1 /// TPSB2 (11721975_s_at) / Fold change /veh TPSAB1 /// TPSB2 (11721975_s_at) / RFU GSTM3 (11746129_a_at) / Fold change /veh GSTM3 (11746129_a_at) / RFU IL23R (11737362_x_at) / Fold change /veh IL23R (11737362_x_at) / RFU TMEM51 (11727254_a_at) / Fold change /veh TMEM51 (11727254_a_at) / RFU PIWIL2 (11732686_x_at) / Fold change /veh PIWIL2 (11732686_x_at) / RFU ORM1 (11744905_x_at) / Fold change /veh ORM1 (11744905_x_at) / RFU CCDC152 (11743942_at) / Fold change /veh CCDC152 (11743942_at) / RFU ECM1 (11717891_a_at) / Fold change /veh ECM1 (11717891_a_at) / RFU IL23R (11748794_a_at) / Fold change /veh IL23R (11748794_a_at) / RFU TNFAIP8L3 (11732012_x_at) / Fold change /veh TNFAIP8L3 (11732012_x_at) / RFU MBOAT4 (11741988_at) / Fold change /veh MBOAT4 (11741988_at) / RFU 11764193_at / Fold change /veh 11764193_at / RFU TMEM53 (11763286_at) / Fold change /veh TMEM53 (11763286_at) / RFU MAGEB2 (11727129_at) / Fold change /veh MAGEB2 (11727129_at) / RFU TMEM200A (11744735_a_at) / Fold change /veh TMEM200A (11744735_a_at) / RFU CCDC152 (11751479_a_at) / Fold change /veh CCDC152 (11751479_a_at) / RFU FAM211A (11726209_a_at) / Fold change /veh FAM211A (11726209_a_at) / RFU RGS16 (11746705_a_at) / Fold change /veh RGS16 (11746705_a_at) / RFU VCAN (11755009_s_at) / Fold change /veh VCAN (11755009_s_at) / RFU RHOB (11743442_s_at) / Fold change /veh RHOB (11743442_s_at) / RFU RGS16 (11720943_a_at) / Fold change /veh RGS16 (11720943_a_at) / RFU RGS16 (11720944_at) / Fold change /veh RGS16 (11720944_at) / RFU, VPS4B / Fold change vs veh, VPS4B / RFU, CREB1 / Fold change vs veh, CREB1 / RFU, DNAJC13 / Fold change vs veh, DNAJC13 / RFU, GNAQ / Fold change vs veh, GNAQ / RFU, CDK5R1 / Fold change vs veh, CDK5R1 / RFU, ZRANB3 / Fold change vs veh, ZRANB3 / RFU, CUL4A / Fold change vs veh, CUL4A / RFU, CCNY / Fold change vs veh, CCNY / RFU, UFL1 / Fold change vs veh, UFL1 / RFU, COG3 / Fold change vs veh, COG3 / RFU, DIAPH2 / Fold change vs veh, DIAPH2 / RFU, SKA2 / Fold change vs veh, SKA2 / RFU, AFF3 / Fold change vs veh, AFF3 / RFU, LMF1 / Fold change vs veh, LMF1 / RFU, IPO11 / Fold change vs veh, IPO11 / RFU, DFFB / Fold change vs veh, DFFB / RFU, FOXP1 / Fold change vs veh, FOXP1 / RFU, CARD8 / Fold change vs veh, CARD8 / RFU, STRN3 / Fold change vs veh, STRN3 / RFU, ADK / Fold change vs veh, ADK / RFU, RASSF2 / Fold change vs veh, RASSF2 / RFU, WIPF1 / Fold change vs veh, WIPF1 / RFU, LARP1B / Fold change vs veh, LARP1B / RFU, RASA1 / Fold change vs veh, RASA1 / RFU, RB1 / Fold change vs veh, RB1 / RFU, PPFIA1 / Fold change vs veh, PPFIA1 / RFU, MAT2A / Fold change vs veh, MAT2A / RFU, CCT5 / Fold change vs veh, CCT5 / RFU, WDR92 / Fold change vs veh, WDR92 / RFU, CUX1 / Fold change vs veh, CUX1 / RFU, TTC7A / Fold change vs veh, TTC7A / RFU, TMEM135 / Fold change vs veh, TMEM135 / RFU, DEPTOR / Fold change vs veh, DEPTOR / RFU, CPM / Fold change vs veh, CPM / RFU, DNAJB6 / Fold change vs veh, DNAJB6 / RFU, CACNA2D3 / Fold change vs veh, CACNA2D3 / RFU, DTX4 / Fold change vs veh, DTX4 / RFU, TFCP2 / Fold change vs veh, TFCP2 / RFU, GMCL1 /// GMCL1P1 / Fold change vs veh, GMCL1 /// GMCL1P1 / RFU, AEBP2 / Fold change vs veh, AEBP2 / RFU, SNHG1 /// SNORD22 /// SNORD25 /// SNORD26 /// SNORD27 /// SNORD28 /// SNORD29 /// SNORD31 / Fold change vs veh, SNHG1 /// SNORD22 /// SNORD25 /// SNORD26 /// SNORD27 /// SNORD28 /// SNORD29 /// SNORD31 / Fold change (Aza/veh), C12orf56 (ProbeSet 11735607_a_at) / Fold change (ACY-1035/veh), C12orf56 (ProbeSet 11735607_a_at) / Fold change (Aza/veh), FGFR1OP (ProbeSet 11751329_s_at) / Fold change (ACY-1035/veh), FGFR1OP (ProbeSet 11751329_s_at) / Fold change (Aza/veh), VPS36 (ProbeSet 11739960_a_at) / Fold change (ACY-1035/veh), VPS36 (ProbeSet 11739960_a_at) / RFU SYPL1 (11715823_x_at) / Fold change /veh SYPL1 (11715823_x_at) / RFU IGFBP7 (11715501_s_at) / Fold change /veh IGFBP7 (11715501_s_at) / RFU REEP3 (11722064_at) / Fold change /veh REEP3 (11722064_at) / RFU IGLL1 (11728026_x_at) / Fold change /veh IGLL1 (11728026_x_at): dose or concentration left out as unconfirmed
Conditions: MV-4-11 cells, 48 hours

Nc1ncn([C@@H]2O[C@H](CO)[C@@H](O)[C@H]2O)c(=O)n1 [azacitidine]
Fold change /veh PRSS12 (11739890_at): 0.94
